Laboratory results as given in PubChem BioAssay (NCI).
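Five compound concentrations were applied to cells in 96-well plates for 48 hours; endpoints were derived by simple linear interpolation of the resulting dose-response curve. The concentration for 50% growth inhibition is given as GI50. At the TGI there is no net growth.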

Legend:
Experiment in all cases: growth of human tumour cells (NCI), 48 h
ACHN renal = test system: ACHN renal
CCRF-CEM leukemia = test system: CCRF-CEM leukemia
EKVX NSCLC = test system: EKVX NSCLC
K-562 leukemia = test system: K-562 leukemia
LOX IMVI melanoma = test system: LOX IMVI melanoma
NCI-H226 lung = test system: NCI-H226 lung
NCI-H23 lung = test system: NCI-H23 lung
NCI-H522 lung = test system: NCI-H522 lung
RPMI-8226 leukemia = test system: RPMI-8226 leukemia
SF-268 CNS = test system: SF-268 CNS
SF-295 CNS = test system: SF-295 CNS
SN12C renal = test system: SN12C renal
SNB-75 CNS = test system: SNB-75 CNS
DU-145 prostate = test system: DU-145 prostate
MDA-MB-231 breast = test system: MDA-MB-231 breast
NCI/ADR-RES ovarian = test system: NCI/ADR-RES ovarian
T-47D breast = test system: T-47D breast

Compound	TGI (ACHN renal) [µM]	TGI (CCRF-CEM leukemia) [µM]	TGI (EKVX NSCLC) [µM]	TGI (K-562 leukemia) [µM]	TGI (LOX IMVI melanoma) [µM]	TGI (NCI-H226 lung) [µM]	TGI (NCI-H23 lung) [µM]	TGI (NCI-H522 lung) [µM]	TGI (RPMI-8226 leukemia) [µM]	GI50 (SF-268 CNS) [µM]	TGI (SF-268 CNS) [µM]	TGI (SF-295 CNS) [µM]	TGI (SN12C renal) [µM]	TGI (SNB-75 CNS) [µM]	TGI (DU-145 prostate) [µM]	TGI (MDA-MB-231 breast) [µM]	TGI (NCI/ADR-RES ovarian) [µM]	TGI (T-47D breast) [µM]	GI50 (CCRF-CEM leukemia) [µM]	GI50 (SNB-75 CNS) [µM]
CC(C)C(=O)CC(c1ccc(Cl)cc1)N1N=C(C(C)C)CC1c1ccc(Cl)cc1 (configuration not stated)	> 100	> 69.8	> 100	> 100	> 100	> 100	> 100	> 100	> 100	> 100	> 100	> 31.6	> 100	> 100	–	–	–	–	–	–
O=C(O)CCc1nc2ccccc2[nH]1	> 100	> 100	> 100	> 100	> 100	> 100	> 100	> 100	> 100	–	> 100	> 100	> 100	> 100	> 100	> 100	> 100	> 100	–	–
O=C(O)c1cc(=O)c2c(OCC(O)COc3cccc4oc(C(=O)O)cc(=O)c34)cccc2o1	> 100	> 100	> 100	> 100	> 100	> 100	> 100	> 75.2	> 100	–	> 100	> 100	> 100	> 100	> 100	> 100	> 100	> 100	–	–
C/C(=N\NC(=S)NCCCCNC(=S)N/N=C(\C)c1ccccn1)c1ccccc1	> 24	–	> 100	> 100	14.3	> 23.6	25.3	30.7	14.3	–	> 36.5	> 37.6	4.43	9.92	> 50	> 52.7	3.86	–	–	–
COc1ccc(C(O)(c2ccccc2)c2nccc3ccccc23)cc1 (configuration not stated)	> 100	8.98	36.9	> 100	> 100	–	> 100	30.7	> 100	–	> 100	> 100	> 100	–	> 100	> 100	> 100	> 100	–	–
COc1ccc(-c2cc(-c3ccc(O)cc3O)c(C#N)c(=O)[nH]2)cc1	> 100	56.7	41.6	77	31.6	55.3	71.1	–	43.5	–	73.5	34	40.9	–	> 100	36.8	46.2	> 100	–	–
NNC(=O)CCSc1ccccc1	> 100	> 100	> 100	> 100	> 100	> 100	> 100	> 100	> 100	–	> 100	> 100	> 100	> 100	> 100	> 100	> 100	> 100	–	–
COc1cc2c(cc1OCCCOS(C)(=O)=O)N=C[C@@H]1CCCN1C2=O	> 100	> 100	> 100	–	> 100	> 100	> 100	> 100	> 100	–	> 100	> 100	> 100	> 100	> 100	> 100	> 100	> 100	52.8	94.7
COc1cc2cc(C(=O)Nc3cc4n(n3)-c3ccccc3C4)[nH]c2c(OC)c1OC	17.6	3.42	11.5	14.9	12.7	3.95	10.5	4.13	3.14	–	15.1	11.6	25.6	13.9	14.3	19.3	3.86	2.39	–	–
Cc1[nH]c(=O)[nH]c(=O)c1/C=C/C(=O)NC(CO)CS(=O)Cc1ccccc1 (configuration not stated)	–	> 300	> 300	> 300	> 300	> 300	> 300	> 300	> 300	–	> 300	> 300	> 300	> 300	–	–	> 300	–	–	–
O=c1/c(=C/c2ccc([N+](=O)[O-])o2)sc2n1[C@@H](c1ccc(Cl)cc1)C=C(c1cc(F)c(Cl)cc1Cl)N=2	32.6	> 100	–	36.9	33.6	32.4	39.4	49.2	25.9	–	33.4	72.4	19.5	> 100	39.9	18.5	> 100	52.7	–	–
Cc1ccc([N+](=O)[O-])cc1S(=O)(=O)Nc1ccc(C2=NOC(c3cccs3)C2)cc1 (configuration not stated)	46.3	50.2	65	43.6	23.6	> 100	73.4	21.2	94.5	–	99.2	44.1	53.3	61.8	52.7	> 100	41.1	50.5	–	–
N#CCCN(CCC#N)c1ccc(/C=C(\NC(=O)c2cc([N+](=O)[O-])ccc2Cl)C(=O)Nc2ccccc2)cc1	> 100	> 100	> 100	> 100	> 100	> 100	> 100	> 100	> 100	–	> 100	> 100	> 100	–	–	–	–	–	–	–
c1ccc(C(NC2=NCCO2)c2ccccc2)cc1	> 10	> 10	> 10	> 10	> 10	> 10	> 10	> 10	> 10	–	> 10	> 10	> 10	> 10	> 10	> 10	> 10	> 10	–	–
Cc1c(Cl)nc(Cl)nc1Cl	0.829	0.676	3.82	–	1.34	8.46	4.64	0.118	–	–	4.01	10.6	7.53	11.7	11.1	2.99	4.45	4.11	–	–
Cn1ccc(C(=O)NCCN(CCNC(=O)c2ccn(C)c(=O)c2O)CCNC(=O)c2ccn(C)c(=O)c2O)c(O)c1=O	> 100	> 100	–	> 100	–	> 100	> 100	> 100	> 100	–	> 100	> 100	> 100	> 100	> 100	> 100	> 100	> 100	–	–
CC(=O)O[C@@H]1C(=O)N(c2ccccc2)[C@@H]1c1cc2ccccc2c2ccccc12	> 100	> 100	> 100	> 100	64.3	> 100	> 100	11.2	82.6	–	> 100	> 100	> 100	–	> 100	75.1	> 100	85.7	–	–
CCOC(=O)C(Cc1cn(C(C)=O)c2ccccc12)P(=O)(OCC)OCC (configuration not stated)	> 100	–	–	> 100	> 100	> 100	> 100	> 100	> 100	–	–	> 100	> 100	> 100	> 100	> 100	> 100	> 100	–	–
CCCn1cc2c(SC)nc(SC)nc2n1	> 100	> 100	> 100	> 100	> 100	> 100	> 100	–	> 100	–	> 100	> 100	> 100	> 100	–	–	–	–	–	–
